# Test results published in the METLIN SMRT retention time set (Domingo-Almenara et al. 2019).
# Assay: gradient 5% acetonitrile 3 min, to 50% in 2 min, to 85% in 15 min, held 3 min, 100 µL/min
# Settings: column: Zorbax Extend-C18 2.1 x 50 mm; eluents: water / acetonitrile, 0.1% formic acid
# Method in brief: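 Pure standards were run in mixtures of ~100 molecules by HPLC coupled to a quadrupole time-of-flight mass spectrometer. The column was a Zorbax Extend-C18 (2.1 × 50 mm, 1.8 μm) at 100 μL/min, with water and acetonitrile each containing 0.1% formic acid, in positive and negative ionization mode. Dead and dwell volumes were 40 μL and 900 μL. Retention time was taken from computationally picked adduct peaks, each manually inspected, with data collected over 3 months.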
row,SMILES,RP-LC retention time
1,COCCN1C(=O)c2ccccc2C(C(=O)NCc2ccccc2)C12CCCCC2 (stereo not given),856 s
2,O=C(Nc1ccc(N2CCOCC2)cc1)c1cc(C2CC2)n2nccc2n1,846 s
3,CN1C(=O)CSc2ccc(NC(=O)N3CCN(c4ccccn4)CC3)cc21,579 s
4,CCOc1ccc(C(=O)N2CCN(c3cc(CC)n4cnnc4n3)CC2)cc1,742 s
5,CCCN1C(=O)C(CC(=O)NC(C)C)Sc2ncccc21 (stereo not given),680 s
6,CS(=O)(=O)N1CCC(C(=O)NC2CCCCCC2)Oc2ccc(Cl)cc21 (stereo not given),991 s
7,CC(NS(=O)(=O)c1cc(-c2nc(C(C)(C)C)cs2)cs1)c1ccccc1 (stereo not given),1240 s
8,c1ccc(CNc2cc(-n3cccn3)ncn2)cc1,832 s
9,CC1CCN(C(=O)CCCN2C(=O)CCn3nc(-c4cn(C)c5ccccc45)cc32)CC1,880 s
10,Cc1cccc(N2CC(C(=O)NC3CC3)CC2=O)c1 (stereo not given),671 s
11,CCC(=O)Nc1cnc2c(c1)CCC2,491 s
12,O=C(Cn1ncc2c(N3CCN(c4ccccn4)CC3)ncnc21)Nc1cc(F)cc(F)c1,634 s
13,Cc1c(CCO)c(=O)n2n1CCCC2,618 s
14,CCC(C)(C)C(=O)N1CCC2(CCc3nn(Cc4ccccc4)c(=O)n3CC2)CC1,811 s
15,CCOC(=O)COC(=O)c1cn(-c2ccc(OCC)cc2)c(=O)c2ccccc12,1070 s
16,CCc1cc(C2CCCN2Cc2cc(OC)c(O)c(OC)c2)on1 (stereo not given),575 s
17,Cc1cccc(NC(=O)C2C(=O)N(C)C3(C)CC2c2ccccc2O3)c1 (stereo not given),995 s
18,CCN1C(=O)CC[C@]2(CN(C)C(=O)Cc3cccc(F)c3)CCC[C@@H]12,752 s
19,CC(C)c1nnc(-c2ccc(S(=O)(=O)NC3CCCCC3)o2)o1,904 s
20,O=C(c1cn(-c2cc(N3CCSCC3)ncn2)cn1)N1CCCc2ccccc21,780 s
21,COc1ccc(Cl)cc1NC(=O)N1CCN(c2ccc3nncn3n2)CC1,667 s
22,CCCN(Cc1ccsc1)C(=O)c1ccc(OC)c(OC)c1OC,880 s
23,C=CCN(CC=C)C(=O)Nc1cc(OC)ccc1OC,962 s

row,SMILES,RP-LC retention time
1,O=C(C1CCN(c2nnc(-c3ccccc3)o2)CC1)N1CCCCC1,760 s
2,CC1CCC(NC(=O)c2cc3sc(Cl)cc3n2C)CC1 (stereo not given),1230 s
3,CC(C)Cc1cc(-c2nn3c(-c4cccc(F)c4)nnc3s2)n[nH]1,993 s
4,CCn1cc(CCNC(=O)Nc2cccc(C(C)=O)c2)c2cccnc21,665 s
5,O=C(CCn1cnc2c(cnn2-c2ccccc2)c1=O)Nc1ccc2c(c1)OCCO2,754 s
6,Cc1nc(-c2cc(S(=O)(=O)N3CCCCC3C)c(C)s2)sc1C (stereo not given),1220 s
7,O=C(Nc1ccc2c(c1)C(=O)Nc1ccccc1O2)Oc1ccccc1,813 s
8,Cc1nnc(N2CCCC(C(=O)NCCCOC(C)C)C2)c2nn(-c3ccc(Cl)cc3)c(C)c12 (stereo not given),714 s
9,O=C(C1CCCN(c2nccnc2Sc2ccccc2)C1)N1CCOCC1 (stereo not given),850 s
10,CCNCc1ccc(-c2cc(Cl)ccc2Cl)o1,686 s
11,Cc1ccc(-n2nc(C)c3c(C)c(CCC(=O)NCCc4c[nH]c5ccccc45)c(C)nc32)cc1C,1150 s
12,CCCC(=O)N1CC(c2nc(-c3cccnc3)no2)C2(CCOCC2)C1 (stereo not given),622 s
13,CCCC(=O)NC1CCN(c2cc(C)cc(C)c2)C1=O (stereo not given),750 s
14,Cc1ccccc1CNC(=O)c1c(C)sc2ccn(CC(C)C)c(=O)c12,1010 s
15,O=C(Nc1cccc(C(F)(F)F)c1)NC1CCN(c2cc(N3CCCC3)cnn2)C1 (stereo not given),617 s
16,CSc1ccc(CNC(=O)C2CCCN(C(=O)c3[nH]c(C)cc3C)C2)cc1 (stereo not given),701 s
17,CCCCOC(=O)Cn1c(=O)c2c(nc3n2CCCCN3c2ccc(OCC)cc2)n(C)c1=O,1100 s
18,CC1CCN(c2cc(-n3cnc(C(=O)N4CCN(c5ccccc5)CC4)c3)ncn2)CC1,1040 s
19,CCOc1ccc(S(=O)(=O)N(C)C)c2ccccc12,950 s
20,C=C(C)CSc1nnc(-c2ccc(OC)cc2)o1,1030 s
21,CCCCS(=O)(=O)c1cc2c(cc1NC(=O)c1c(F)cccc1F)n(C)c(=O)n2C,800 s
22,CC1CCN(Cc2csc(N3CCN(C(=O)c4ccc(C#N)cc4)CC3)n2)CC1,638 s
23,O=C(Nc1ccnn1Cc1ccco1)C(c1ccccc1)c1ccccc1,926 s

# Now from value to compound:
row,RP-LC retention time,SMILES
1,1170 s,Cc1cccc(-c2nc(Cc3noc(COc4ccccc4)n3)c(C)o2)c1
2,610 s,COc1ccc(CC(=O)Nc2cccc(-c3cn4cccnc4n3)c2)cc1
3,954 s,O=C1c2ccccc2C(=O)N1c1ccc(OC(F)(F)F)cc1
4,855 s,O=C(C1CC1)N1CCc2sc(S(=O)(=O)NCc3ccccc3Cl)cc2C1
5,856 s,Cc1ccc(Cl)cc1NC(=O)Cn1nc(N2CCOCC2)c2ccccc2c1=O
6,844 s,CC(C)NC(=O)c1ccc(OCC2CCCN(C(=O)c3ccc(F)cc3)C2)cc1 (stereo not given)
7,764 s,CCN1C(=O)c2c(C(=O)NCc3ccc(F)cc3)ncn2CC1(C)C(=O)NC1CCCC1 (stereo not given)
8,586 s,COc1ccc(NC(=O)Nc2cccc(-c3ccc(N4CCOCC4)nn3)c2)cc1OC
9,854 s,COc1ccc(-c2ncc3c(=O)n(CC(=O)Nc4cc(OC)cc(OC)c4)cnc3n2)cc1
10,954 s,CN(CCc1noc(-c2ccccc2)n1)C(=O)Nc1ccc(F)c(Cl)c1
11,607 s,O=C(c1ccc(-c2ccc(N3CCCCC3)nc2)cc1)N1CCOCC1
12,909 s,O=C(CN1C(=O)CCCc2cc(S(=O)(=O)N3CCCCC3)ccc21)NCc1ccccc1Cl
13,1290 s,O=C(NC1CCCCCC1)C1CCCN(c2nc3ccccc3n(Cc3ccccc3)c2=O)C1 (stereo not given)
14,1010 s,CCCC(C(=O)O)c1c(C)nc2ccc(Cl)cc2c1-c1ccccc1 (stereo not given)
15,863 s,CCc1ccc(NC(=O)Cn2ncn3c(C)c(C(=O)NCc4ccccc4)c(C)c3c2=O)cc1
16,1030 s,Cc1cccc(C)c1N1CCN(C(=O)c2cccc(F)c2)CC1
17,856 s,COCc1cc2nn(CC(=O)N3CCc4ccccc43)c(=O)n2c(-c2ccccc2)n1
18,1020 s,COc1ccc(-c2csc3c(=O)n(CC(C)C)cnc23)cc1
19,886 s,COc1ccc(-c2noc(C3CC(=O)N(c4ccc5c(c4)OCO5)C3)n2)cc1OC (stereo not given)
20,616 s,CC(NC(=O)c1ccc2c(c1)nc1n2CCN(Cc2ccccc2)C1=O)c1cccnc1 (stereo not given)
21,980 s,Cc1sc(NC(=O)Cn2c(=O)sc3ccccc32)nc1-c1ccccc1
22,1120 s,CCCOc1ccc(-c2nc(-c3ccc(N)cc3)cs2)cc1

row,RP-LC retention time,SMILES
1,623 s,Cc1cc(-c2ccc(S(=O)(=O)N3CCN(c4ccccn4)CC3)s2)n[nH]1
2,1000 s,CSc1ccc(-c2nc3cnccn3c2Nc2ccc(C)cc2)cc1
3,728 s,CCn1cnc(S(=O)(=O)N2CCC(C(=O)Nc3cc(OC)ccc3OC)CC2)c1
4,914 s,CCOc1ccc(S(=O)(=O)N2CCC(C(=O)NCc3csc(-c4cccs4)n3)CC2)cc1
5,747 s,Cc1cccn2c(Nc3ccc4c(c3)OCCO4)c(-c3ccc(Cl)cc3)nc12
6,1180 s,CC(C)c1ccc(-c2noc(N3CCC(C(=O)N4CCCCCC4)CC3)n2)cc1
7,972 s,CC(Oc1ccccc1)C(=O)N1CCN(C(=O)c2nnn3c2COC(c2ccc(Cl)cc2)C3)CC1 (stereo not given)
8,748 s,O=C(O)c1ccc2c(c1)N(C(=O)c1ccc(F)cc1)CC2
9,664 s,CC1=C(c2ccc(F)cc2)S(=O)(=O)N=C1N1CCC(NC(=O)C2CCOC2)CC1 (stereo not given)
10,963 s,CCOc1ccc(NC(=O)C2CCN(S(=O)(=O)c3c(C)nn(-c4ccccc4)c3C)CC2)cc1
11,877 s,Cc1ccc(N2N=C(C(=O)NCC3CCCO3)S(=O)(=O)c3cc(F)ccc32)cc1 (stereo not given)
12,1110 s,Cc1ccccc1-n1c(=O)c2sccc2n(Cc2nc(-c3ccc(F)c(Cl)c3)no2)c1=O
13,624 s,CCCn1c(C)cnc1C1CN(S(=O)(=O)c2cccc3cccnc23)C1
14,1100 s,COc1ccc(-c2ncc3c(n2)CCN(S(=O)(=O)c2ccc(F)c(C)c2)C3)cc1
15,832 s,COc1ccc(C2C(C(=O)Nc3ccc4c(c3)OCCO4)c3ccccc3C(=O)N2C)cc1 (stereo not given)
16,819 s,Cc1cc(-c2ccc(C(C)C)c(S(=O)(=O)N3CCN(c4ccccn4)CC3)c2)on1
17,1050 s,Cc1cccc(N2CCN(C(=O)C3CCN(S(=O)(=O)c4cccc5nsnc45)CC3)CC2)c1C
18,612 s,NS(=O)(=O)c1ccc(CCNC(=O)c2n[nH]c3ccccc23)cc1
19,871 s,O=C(NCc1cccc(F)c1)c1ccc(-c2ccsc2)nc1
20,1410 s,Clc1ccc(-c2csc(Nc3c(Cl)cccc3Cl)n2)cc1Cl
21,971 s,Cc1ccc(S(=O)(=O)N(C)C)cc1-c1nnc(-c2ccccc2)o1
22,1250 s,Cc1c(Cl)cccc1S(=O)(=O)N1CCc2nc(-c3ccc(F)cc3)ncc2C1
